Assay [1] concerns rats suffering from puromycin-caused nephropathy. The assay can be described thus: 24-hour urine protein in rats suffering from puromycin-caused nephropathy. To be noted: 10 mg/kg verbascoside intragastrically every day. It counts as in vivo, Sprague-Dawley rats. An excerpt:
(§1) The animal experiment was approved by Animal Ethics Committee of Peking University First Hospital, with Resolution No.: J201644. 51 male Sprague-Dawley rats (6 weeks) of the same batch were purchased from Beijing Charles River Company, raised at the animal center of Peking University First Hospital (clean grade), and randomly divided into 3 groups after 3 days of acclimation:
1. normal control group (CON)
2. puromycin disease group (PAN)
3. puromycin+verbascoside-treated group (PAN+ACT)
(§2) In the above, groups 2 and 3 were intraperitoneally subjected to single injection of puromycin (Sigma P7130) by 15 mg/100 g at day 0 of the experiment. The normal control group was intraperitoneally injected with the same dosage of physiological saline. Group 3 was intragastrically treated with 10 mg/kg verbascoside every day, and groups 1 and 2 were intragastrically treated with the same dosage of injection water every day. In the experiment process, 24-hour urine of the rats was collected respectively before the administration (Day 0), and at the 5th day, the 10th day, the 15th day, and the 20th day (Day 5, Day 10, Day 15, and Day 20) after the administration, for quantitative measurement of urine protein (Hitachi 7170A full-automatic biochemical analyzer). The rats were sacrificed at the 20th day (Day 20) after the injection of puromycin, and kidney specimens were collected, which were subsequently used for extracting protein, extracting RNA, taking paraffin-embedded and frozen specimens, and separating glomeruli.
In order to determine the therapeutic effect of verbascoside on the rats suffering from puromycin-caused nephropathy, the rats were divided into 3 groups, normal control group (CON), disease group (PAN), and verbascoside group (PAN+ACT). 24-hour urine of the rats in each group were sampled every 5 days. The effect of verbascoside for treating the nephropathic proteinuria level was reflected by collecting and detecting blood and urine samples of the rats in each group.

Assay [2] relates to podocyte foot process. The experiment in a line: Podocyte foot process under electron microscope in puromycin-induced nephropathic rat models. It counts as in vivo, Sprague-Dawley rats. As to conditions: 20th day; 10 mg/kg intragastrically every day. The procedure: as §1
as §2, with “The rats were sacrificed at the 20th day (Day 20) after the injection of puromycin, and kidney specimens were collected, which were subsequently used for extracting protein, extracting RNA, taking paraffin-embedded and frozen specimens, and separating glomeruli.” left out

In assay [3] the test system is synaptopodin. The assay can be described thus: Synaptopodin immunofluorescence of kidney tissue in puromycin-induced nephropathic rats. It counts as in vivo, Sprague-Dawley rats. As to conditions: 20th day, 10 mg/kg intragastrically every day. Here is the method: as §1
as §2, with “The rats were sacrificed at the 20th day (Day 20) after the injection of puromycin, and kidney specimens were collected, which were subsequently used for extracting protein, extracting RNA, taking paraffin-embedded and frozen specimens, and separating glomeruli.” left out
The kidney tissue was sliced. […] The mixture was rinsed with deionized water, mounted with 50% buffered glycerol, edge sealed with nail polish, observed under a fluorescence microscope, and photographed. […]

Assay [4] relates to nephrin. The experiment in a line: Nephrin gene and protein expression in glomeruli of puromycin-induced nephropathic rats (western, real-time quantitative PCR). It counts as in vivo, Sprague-Dawley rats. To be noted: 20th day, 10 mg/kg intragastrically every day. The procedure:
as §1
as §2, with “The rats were sacrificed at the 20th day (Day 20) after the injection of puromycin, and kidney specimens were collected, which were subsequently used for extracting protein, extracting RNA, taking paraffin-embedded and frozen specimens, and separating glomeruli.” left out

Assay [5] relates to mouse podocyte line MPC5. The assay can be described thus: Detection of podocyte activity with MTS in puromycin-induced podocyte damage. It counts as cell-based. To be noted: 24 h. The procedure: (§3) A mouse podocyte line MPC5 was offered by professor Peter Mundel from Mount Sinai Medical School, New York, USA. After recovery, podocytes were placed in a 33° C., 5% CO2 cell incubator to be cultured for proliferation thereof. When a fusion degree thereof reached about 80%, the podocytes were transferred into a 37° C. incubator to be differentiated for 10-14 days such that the podocytes were differentiated to be mature. After the podocytes were differentiated to be mature, the podocytes were inoculated in a 6-well plate, and after the podocytes adhered to the wall, puromycin and verbascoside were added into the plate to stimulate the podocytes for 24 hours, and then proteins or RNAs were collected for later detection.
After subculturing and counting the podocytes, the podocytes were uniformly inoculated into a 96-well plate at a density of 1.0×10^5/mL, after the cells adhered to the wall, puromycin and verbascoside were respectively added to treat the podocytes, then after 24 h, the culture medium was discarded, a culture medium containing MTS (Promega G1112) was added with the MTS content of 10 μl MTS per 100 μl of the culture medium, the 96-well plate added with the MTS was placed in a light-tight environment at 37° C. for 4 h and then taken out, and an OD value was measured at 490 nm wavelength using the ELIASA.

Assay [6] has as its system mouse podocyte line MPC5. The assay can be described thus: Cell migration (scratch) experiment in puromycin-treated podocytes. It counts as cell-based. To be noted: 24 hours after scratch. Here is the method:
as §3
The differentiated podocytes were inoculated on a 6-well plate coated with rat type I collagen, and when the fusion degree thereof reached 60%, a line was scratched on a baseboard using a 200 μL sterile high-pressure gun tip, then the plate was flushed clean using PBS and a clean culture medium was used in replacement, which time was served as the 0th hour, and a photo was taken by an inverted microscope, then a corresponding drug was added for intervention, then after 24 hours, a photo was taken again, and finally analysis was made using ImageJ software. The final result was expressed by percentage of coverage.

Assay [7] concerns nephrin. The experiment in a line: Nephrin protein expression in puromycin-induced podocyte damage (western blot). It counts as cell-based, mouse. As to conditions: 24 hours. Here is the method: as §3, with “detection. […]” for “detection.”
For orientation: Immunoblotting shows a protein as a band on a membrane.

Assay [8] has as its system mouse podocyte line MPC5. The experiment in a line: Phalloidin staining of podocyte cytoskeletal microfilamentous proteins. It counts as cell-based. To be noted: puromycin-treated podocytes. Here is the method: as §3
The kidney tissue was sliced. First, slices were subjected to xylene and gradient alcohol deparaffinization, followed by antigen retrieval, and then punched with 0.3% Triton-PBS. […] The mixture was rinsed with deionized water, mounted with 50% buffered glycerol, edge sealed with nail polish, observed under a fluorescence microscope, and photographed. […]

For Verbascoside, in assay [1] (5th day, puromycin 15 mg/100 g i.p.), the “24-hour urine protein vs puromycin group” value is “not significantly different”. For the same substance, in assay [1] (10th day, puromycin 15 mg/100 g i.p.), the “24-hour urine protein vs disease group” value was “decreased significantly”. Further, the 24-hour proteinuria abnormality entry in assay [1] (15th day) and in assay [1] (20th day) was “remarkably relieved” throughout. Also, the “podocyte foot process fusion (electron microscope)” value in assay [2] was “recovered apparently”. Moreover, in assay [3], the synaptopodin fluorescence intensity entry is on record as “recovered”. In assay [4], the “nephrin gene expression level (real-time quantitative PCR)” value was “increased”. The “nephrin protein expression level (western)” value in assay [4] was “increased”. For the same substance, the “podocyte viability (MTS, OD 490 nm)” value in assay [5] is listed as “recovered”. Moreover, in assay [6], the “podocyte migration capability (percentage of coverage)” value is “restored”. Besides, the “nephrin expression (protein)” value in assay [7] is listed as “improved”. The “arrangement of the cytoskeletons (phalloidin)” value in assay [8] was “restored”.

For the origin of these results see patent US11471472B2, “Use of verbascoside in preparation of drug for preventing or treating glomerular podocyte injured renal disease” (SICHUAN MEDCO PHARMACEUTICAL STOCK CO., LTD., priority 2017, dated 2022).
